Source: patent US6355799B1, “Substituted benzene compounds, process for their preparation, and herbicidal and defoliant compositions containing them” (ISK Americas Incorporated, priority 1997, dated 2002)

Experiments:
Assay type in all cases: in vivo
[1] = test system: field corn (Zea mays L., var. Dekalb 535, CORN); assay: Post-emerge test, crop safety; conditions: post-emerge, 14 days after application, rating scale 0-100
Procedure, shortened: (§1)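 Plants grown in 10 cm pots of sandy loam mix received acetone-dissolved compounds through a moving flat-fan nozzle. Doses ranged from 15 to 1000 g ai/ha. Pre-emerge pots were seeded one day earlier, post-emerge pots 8–21 days earlier. Fourteen days on, each pot was graded 0–100 for damage.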

[2] = test system: upland rice (Oryza sp., var. Tebonnet, RICE); assay: Post-emerge test, crop safety; conditions: post-emerge, 14 days after application, rating scale 0-100
Procedure, shortened: as §1

[3] = test system: ivyleaf morningglory (Ipomoea hederacea, IPOHE); assay: Pre-emerge test, greenhouse herbicide activity screening; conditions: pre-emerge, 14 days after application
Description: (§2) A standard greenhouse herbicide activity screening system was used to evaluate the herbicidal efficacy and crop safety of these test compounds. Seven broadleaf weed species including redroot pigweed (Amaranthus retroflexus, AMARE, velvetleaf (Abutilon theophrasti, ABUTH), sicklepod (Cassia obtusifolia, CASOB), ivyleaf morningglory (Ipomoea hederacea, IPOHE), lambsquarters (Chenopodium album, CHEAL), common ragweed (Ambrosia artemisizfolia L., AMBEL), and cocklebur (Xanthium strumarium, XANST) were used as test species. Four grass weed species including green foxtail (Setaria viridis, SETVI), barnyardgrass (Echinochloa crus-galli, ECHCG), johnsongrass (Sorghum halepense, SORHA), and large crabgrass (Digitaria sanguinalis, DIGSA) were also used. In addition, three crop species, field corn (Zea mays L., var. Dekalb 535, CORN), soybean (Glycine max L., var. Pella 86, SOY), and is upland rice (Oryza sp., var. Tebonnet, RICE) were included.
(§3) All plants were grown in 10 cm square plastic pots which were filled with a sandy loam soil mix. For pre-emerge tests, seeds were planted one day prior to application of the test compounds. For post-emerge tests, seeds were planted 8-21 days prior to the test to allow emergence and good foliage development prior to application of the test substances. At the time of the post-emerge application, plants of all species were usually at the 2-3 leaf stage of development.
(§4) All test compounds Were dissolved in acetone and applied to the test units in a volume of 187 l /ha. Test materials were applied at rates ranging from 15 g ai/ha to 1000 g ai/ha using a track sprayer equipped with a TJ8001E even flow flat fan spray nozzle. Plants were arranged on a shelf so that the top of the canopy (post-emerge) or top of the soil surface (pre-emerge) was 40-45 cm below the nozzle. Pressurized air was used to force the test solution through the nozzle as it was mechanically advanced (via electrically driven chain drive) over the top of all test plants/pots. This application simulates a typical commercial field herbicide application.
(§5) In the post-emerge test, a commercial non-ionic surfactant was also included (0.25% v/v) to enhance wetting of the leaf surfaces of target plants. Immediately after application, test units of the pre-emerge applications were watered at the soil surface to incorporate the test materials. Subsequently, these test units were bottom-watered. Post-emerge test units were always bottom-watered.
(§6) At 14 days after application of the test materials, phytotoxicity ratings were recorded. A rating scale of 0-100 was used as previously described in Research Methods in Weed Science, 2nd edition, B. Truelove, Ed., Southern Weed Science Society, Auburn University, Auburn, Ala. 1977. Briefly, “0” corresponds to no damage and “100” corresponds to complete death of all plants in the test unit. This scale was used both to determine efficacy against weed species and damage to crop species. Herbicide activity data for various compounds of this invention, which are shown by compound No. in Tables 1-8, are shown in Tables 11 and 12.

[4] = test system: lambsquarters (Chenopodium album, CHEAL); assay: as above; conditions: pre-emerge, 14 days after application
Description: as §2, §3, §4, §5, §6

[5] = test system: green foxtail (Setaria viridis, SETVI); assay: as above; conditions: pre-emerge, 14 days after application
Description: as §2, §3, §4, §5, §6

[6] = test system: velvetleaf (Abutilon theophrasti, ABUTH); assay: as above; conditions: pre-emerge, 14 days after application
Description: as §2, §3, §4, §5, §6

[7] = test system: sicklepod (Cassia obtusifolia, CASOB); assay: as above; conditions: pre-emerge, 14 days after application
Description: as §2, §3, §4, §5, §6

[8] = test system: large crabgrass (Digitaria sanguinalis, DIGSA); assay: as above; conditions: pre-emerge, 14 days after application
Description: as §2, §3, §4, §5, §6

[9] = test system: barnyardgrass (Echinochloa crus-galli, ECHCG); assay: as above; conditions: pre-emerge, 14 days after application
Description: as §2, §3, §4, §5, §6

[10] = test system: redroot pigweed (Amaranthus retroflexus, AMARE); assay: as above; conditions: pre-emerge, 14 days after application
Procedure, shortened: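 Compounds in acetone were track-sprayed at 15-1000 g ai/ha (187 l/ha) on sandy loam pots: pre-emerge one day after seeding, post-emerge at 2-3 leaf stage with 0.25% v/v non-ionic surfactant. Phytotoxicity was rated 14 days later on a 0 (no damage) to 100 (complete death) scale.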

[11] = test system: ivyleaf morningglory (Ipomoea hederacea, IPOHE); assay: Post-emerge test, greenhouse herbicide activity screening; conditions: post-emerge, 14 days after application, rating scale 0-100
Description: as §2, §3, §4, §5, §6

[12] = test system: lambsquarters (Chenopodium album, CHEAL); assay: as above; conditions: post-emerge, 14 days after application, rating scale 0-100
Description: as §2, §3, §4, §5, §6

[13] = test system: green foxtail (Setaria viridis, SETVI); assay: as above; conditions: post-emerge, 14 days after application, rating scale 0-100
Description: as §2, §3, §4, §5, §6

[14] = test system: velvetleaf (Abutilon theophrasti, ABUTH); assay: as above; conditions: post-emerge, 14 days after application, rating scale 0-100
Description: as §2, §3, §4, §5, §6

[15] = test system: redroot pigweed (Amaranthus retroflexus, AMARE); assay: as above; conditions: post-emerge, 14 days after application
Description: as §2, §3, §4, §5, §6

[16] = test system: sicklepod (Cassia obtusifolia, CASOB); assay: as above; conditions: post-emerge, 14 days after application, rating scale 0-100
Description: as §2, §3, §4, §5, §6

[17] = test system: large crabgrass (Digitaria sanguinalis, DIGSA); assay: as above; conditions: post-emerge, 14 days after application, rating scale 0-100
Description: as §2, §3, §4, §5, §6

[18] = test system: barnyardgrass (Echinochloa crus-galli, ECHCG); assay: as above; conditions: post-emerge, 14 days after application, rating scale 0-100
Description: as §2, §3, §4, §5, §6

[19] = test system: field corn (Zea mays L., var. Dekalb 535, CORN); assay: Pre-emerge test, crop safety; conditions: pre-emerge, 14 days after application; for phytotoxicity rating CORN: rating scale 0-100; for phytotoxicity rating CORN (crop damage): scale 0-100
Procedure, shortened: (§7)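 Applied at 15–1000 g ai/ha from acetone in 187 l/ha spray volume. Post-emergence applications included 0.25% v/v non-ionic surfactant and reached plants sown 8–21 days before. Pre-emergence applications were incorporated by surface watering. Efficacy or crop damage was rated on a 0–100 scale after 14 days.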

[20] = test system: upland rice (Oryza sp., var. Tebonnet, RICE); assay: Pre-emerge test, crop safety; conditions: pre-emerge, 14 days after application; for phytotoxicity rating RICE: rating scale 0-100; for phytotoxicity rating RICE (crop damage): scale 0-100
Procedure, shortened: as §7

[21] = 250 g ai/ha, rating scale 0-100

Compound: COc1c(Cl)cc(F)c(-n2c(=O)cc(C(F)(F)F)n(C)c2=O)c1NNC(=O)c1ccc(F)cc1F [15-4]
- Post-emerge Herbicidal Activity CORN (crop damage rating) ([1]; 63 g ai/ha): 50
- Post-emerge Herbicidal Activity CORN (crop damage rating) ([1]; 250 g ai/ha): 90
- Post-emerge Herbicidal Activity RICE (crop damage rating) ([2]; 63 g ai/ha): 70
- Post-emerge Herbicidal Activity RICE (crop damage rating) ([2]; 250 g ai/ha): 95
- phytotoxicity rating IPOHE ([3]; 63 g ai/ha, rating scale 0-100): 100
- phytotoxicity rating IPOHE [3, 21]: 100
- phytotoxicity rating CHEAL ([4]; 63 g ai/ha, rating scale 0-100): 100
- phytotoxicity rating CHEAL [4, 21]: 100
- phytotoxicity rating SETVI ([5]; 63 g ai/ha, rating scale 0-100): 100
- phytotoxicity rating SETVI [5, 21]: 100
- phytotoxicity rating ABUTH ([6]; 63 g ai/ha, rating scale 0-100): 100
- phytotoxicity rating ABUTH [6, 21]: 100
- phytotoxicity rating CASOB ([7]; 63 g ai/ha, rating scale 0-100): 100
- phytotoxicity rating CASOB [7, 21]: 100
- phytotoxicity rating DIGSA ([8]; 63 g ai/ha, rating scale 0-100): 100
- phytotoxicity rating DIGSA [8, 21]: 100
- phytotoxicity rating ECHCG ([9]; 63 g ai/ha, rating scale 0-100): 80
- phytotoxicity rating ECHCG [9, 21]: 100
- phytotoxicity rating AMARE ([10]; 63 g ai/ha, rating scale 0-100): 100
- phytotoxicity rating AMARE [10, 21]: 100
- Post-emerge Herbicidal Activity IPOHE (phytotoxicity rating) ([11]; 63 g ai/ha): 100
- Post-emerge Herbicidal Activity IPOHE (phytotoxicity rating) ([11]; 250 g ai/ha): 100
- Post-emerge Herbicidal Activity CHEAL (phytotoxicity rating) ([12]; 63 g ai/ha): 100
- Post-emerge Herbicidal Activity CHEAL (phytotoxicity rating) ([12]; 250 g ai/ha): 100
- Post-emerge Herbicidal Activity SETVI (phytotoxicity rating) ([13]; 63 g ai/ha): 50
- Post-emerge Herbicidal Activity SETVI (phytotoxicity rating) ([13]; 250 g ai/ha): 80
- Post-emerge Herbicidal Activity ABUTH (phytotoxicity rating) ([14]; 63 g ai/ha): 100
- Post-emerge Herbicidal Activity ABUTH (phytotoxicity rating) ([14]; 250 g ai/ha): 100
- Post-emerge Herbicidal Activity AMARE (phytotoxicity rating) ([15]; 63 g ai/ha, rating scale 0-100 (0 no damage, 100 complete death)): 70
- Post-emerge Herbicidal Activity AMARE (phytotoxicity rating) [15, 21]: 100
- Post-emerge Herbicidal Activity CASOB (phytotoxicity rating) ([16]; 63 g ai/ha): 50
- Post-emerge Herbicidal Activity CASOB (phytotoxicity rating) ([16]; 250 g ai/ha): 80
- Post-emerge Herbicidal Activity DIGSA (phytotoxicity rating) ([17]; 63 g ai/ha): 30
- Post-emerge Herbicidal Activity DIGSA (phytotoxicity rating) ([17]; 250 g ai/ha): 70
- Post-emerge Herbicidal Activity ECHCG (phytotoxicity rating) ([18]; 63 g ai/ha): 40
- Post-emerge Herbicidal Activity ECHCG (phytotoxicity rating) ([18]; 250 g ai/ha): 90
- phytotoxicity rating CORN ([19]; 63 g ai/ha): 90
- phytotoxicity rating CORN ([19]; 250 g ai/ha): 100
- phytotoxicity rating RICE ([20]; 63 g ai/ha): 80
- phytotoxicity rating RICE ([20]; 250 g ai/ha): 100

Compound: COc1c(Cl)cc(F)c(-n2c(=O)cc(C(F)(F)F)n(C)c2=O)c1NC(=O)CCc1ccccc1C [2-129]
- CORN phytotoxicity rating (crop damage) ([1]; 63 g ai/ha): 70
- CORN phytotoxicity rating (crop damage) ([1]; 250 g ai/ha): 100
- RICE phytotoxicity rating (crop damage) ([2]; 63 g ai/ha): 35
- RICE phytotoxicity rating (crop damage) ([2]; 250 g ai/ha): 75
- phytotoxicity rating IPOHE ([3]; 63 g ai/ha, scale 0-100): 50
- phytotoxicity rating IPOHE ([3]; 250 g ai/ha, scale 0-100): 70
- phytotoxicity rating CHEAL ([4]; 63 g ai/ha, scale 0-100): 100
- phytotoxicity rating CHEAL ([4]; 250 g ai/ha, scale 0-100): 100
- phytotoxicity rating SETVI ([5]; 63 g ai/ha, scale 0-100): 90
- phytotoxicity rating SETVI ([5]; 250 g ai/ha, scale 0-100): 100
- phytotoxicity rating ABUTH ([6]; 63 g ai/ha, scale 0-100): 100
- phytotoxicity rating ABUTH ([6]; 250 g ai/ha, scale 0-100): 100
- phytotoxicity rating CASOB ([7]; 63 g ai/ha, scale 0-100): 60
- phytotoxicity rating CASOB ([7]; 250 g ai/ha, scale 0-100): 90
- phytotoxicity rating DIGSA ([8]; 63 g ai/ha, scale 0-100): 60
- phytotoxicity rating DIGSA ([8]; 250 g ai/ha, scale 0-100): 100
- phytotoxicity rating ECHCG ([9]; 63 g ai/ha, scale 0-100): 30
- phytotoxicity rating ECHCG ([9]; 250 g ai/ha, scale 0-100): 80
- phytotoxicity rating AMARE ([10]; 63 g ai/ha, scale 0-100): 90
- phytotoxicity rating AMARE ([10]; 250 g ai/ha, scale 0-100): 100
- IPOHE phytotoxicity rating ([11]; 63 g ai/ha): 100
- IPOHE phytotoxicity rating ([11]; 250 g ai/ha): 100
- CHEAL phytotoxicity rating ([12]; 63 g ai/ha): 100
- CHEAL phytotoxicity rating ([12]; 250 g ai/ha): 100
- SETVI phytotoxicity rating ([13]; 63 g ai/ha): 80
- SETVI phytotoxicity rating ([13]; 250 g ai/ha): 90
- ABUTH phytotoxicity rating ([14]; 63 g ai/ha): 100
- ABUTH phytotoxicity rating ([14]; 250 g ai/ha): 100
- AMARE phytotoxicity rating ([15]; 63 g ai/ha, rating scale 0-100): 100
- AMARE phytotoxicity rating [15, 21]: 100
- CASOB phytotoxicity rating ([16]; 63 g ai/ha): 80
- CASOB phytotoxicity rating ([16]; 250 g ai/ha): 100
- DIGSA phytotoxicity rating ([17]; 63 g ai/ha): 30
- DIGSA phytotoxicity rating ([17]; 250 g ai/ha): 70
- ECHCG phytotoxicity rating ([18]; 63 g ai/ha): 30
- ECHCG phytotoxicity rating ([18]; 250 g ai/ha): 50
- phytotoxicity rating CORN (crop damage) ([19]; 63 g ai/ha): 50
- phytotoxicity rating CORN (crop damage) ([19]; 250 g ai/ha): 90
- phytotoxicity rating RICE (crop damage) ([20]; 63 g ai/ha): 40
- phytotoxicity rating RICE (crop damage) ([20]; 250 g ai/ha): 80
